Measured values published in patent US11725000B2, “Apoptosis inhibitors” (National Institute of Biological Sciences, Beijing, priority 2017, dated 2023).
Where two headings read alike, the source gives them in different places.

Tested on: U2OS_Bim cells
Assay: Apoptosis inhibition assay (Bim-induced apoptosis, cell viability by ATP level)
Format: cell-based
Details: U2OS_Bim cells, numbering of Tables 4a/4b, read-out: EC50
In short: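 Apoptosis was triggered by doxycycline (0.1 μg/mL) induction of Bim, one hour after compound addition to U2OS_Bim cells. Survival was measured after 24 h from cellular ATP (CellTiter-Glo), relative to DMSO, with zVAD at 20 μM as rescue control. Data are duplicate means, some estimated from preliminary results.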

[1] = estimated (*Est.) / preliminary results
[2] = estimated based on preliminary results

Row | SMILES | EC50 (means of duplicates) | EC50 [1] | other results
1 | COc1ccc(Cn2cc(-c3cc(-n4cccn4)nc(S(C)(=O)=O)n3)ccc2=O)cc1OC [Compound 139, 1-(3,4-dimethoxybenzyl)-5-(2-(methylsulfonyl)-6-(1H-pyrazol-1-yl)pyrimidin-4-yl)pyridin-2 (1H)-one] | 1000 to 10000 nM |  | 
2 | Cc1cc(-c2cc(F)c(=O)n(Cc3ccc4c(c3)OCO4)c2)nc(S(=O)(=O)CCC(OCC2CC2)c2ccccc2)n1 (stereo not drawn) [Compound 418] |  | 1 to 1000 nM | 
3 | C[S+]([O-])c1nc(-c2ccc(=O)n(CC3=Cc4ccccc4C3)c2)cc(C(F)(F)F)n1 (stereo not drawn) [Compound 255] |  |  | EC50 [2]: < 10000 nM
4 | CNc1ccc(Cn2cc(-c3cc(C(F)(F)F)nc(S(C)(=O)=O)n3)ccc2=O)cc1NC [Compound 232] |  |  | EC50 [2]: < 10000 nM
5 | Cc1cc(-c2cc(F)c(=O)n(Cc3ccc4c(c3)OCO4)c2)nc(S(=O)(=O)CCC(OCc2ccccc2F)c2cc3ccccc3n2C)n1 (stereo not drawn) [Compound 387] |  | 1 to 1000 nM | 
6 | COc1ccc(Cn2ccc(-c3cc(C(F)(F)F)nc(S(C)(=O)=O)n3)c2)cc1 [Compound 91, 4-(1-(4-methoxybenzyl)-1H-pyrrol-3-yl)-2-(methylsulfonyl)-6-(trifluoromethyl)pyrimidine] | < 100000 nM |  | 
7 | CS(=O)(=O)c1nc(-c2ccc(=O)n(Cc3ccc(OC(F)(F)F)cc3)c2)cc(C(F)(F)F)n1 [Compound 117, 5-(2-(methylsulfonyl)-6-(trifluoromethyl)pyrimidin-4-yl)-1-(4-(trifluoromethoxy)benzyl)pyridin-2 (1H)-one] | 1000 to 20000 nM |  | 
8 | C[S+]([O-])c1nc(-c2cccc3ccccc23)cc(C(F)(F)F)n1 (stereo not drawn) [Compound 77, 2-(methylsulfinyl)-4-(naphthalen-1-yl)-6-(trifluoromethyl)pyrimidine] | < 100000 nM |  | 
9 | COC(=O)c1cccc(-c2cc(C(F)(F)F)nc(S(C)(=O)=O)n2)c1 [Compound 60, methyl 3-(2-(methylsulfonyl)-6-(trifluoromethyl)pyrimidin-4-yl)benzoate] | < 100000 nM |  | 
10 | CCCCCCNC(=O)CCC[S+]([O-])c1nc(-c2ccc(=O)n(Cc3ccc(OC)c(OC)c3)c2)cc(C(F)F)n1 (stereo not drawn) [Compound 184, 4-((4-(difluoromethyl)-6-(1-(3,4-dimethoxybenzyl)-6-oxo-1,6-dihydropyridin-3-yl)pyrimidin-2-yl)sulfinyl)-N-hexylbutanamide] | 1 to 1000 nM |  | 
11 | Cc1cc(-c2cc(F)c(=O)n(Cc3ccc4nnn(C)c4c3)c2)nc(S(=O)(=O)CCCn2cnc3ccccc32)n1 [Compound 337, 5-(2-((3-(1H-benzo[d]imidazol-1-yl)propyl)sulfonyl)-6-methylpyrimidin-4-yl)-3-fluoro-1-((1-methyl-1H-benzo[d][1,2,3]triazol-6-yl)methyl)pyridin-2 (1H)-one] |  | 1 to 1000 nM | 
12 | Cc1cc(-c2cc(F)c(=O)n(Cc3ccc4c(c3)NC(=O)CO4)c2)nc(S(=O)(=O)CCC(OCc2ccccc2F)c2ccccc2)n1 (stereo not drawn) [Compound 344] |  | 1 to 1000 nM | 
13 | Cc1cc(-c2cc(F)c(=O)n(Cc3ccc4c(c3)OCO4)c2)nc(S(=O)(=O)CCC(OCc2ccccc2F)c2ccco2)n1 (stereo not drawn) [Compound 388] |  | 1 to 1000 nM | 
14 | CS(=O)(=O)c1nc(-c2ccc(C(=O)O)cc2)cc(C(F)(F)F)n1 [Compound 64, 4-(2-(methylsulfonyl)-6-(trifluoromethyl)pyrimidin-4-yl)benzoic acid] | < 100000 nM |  | 
15 | Cc1cc(-c2cc(F)c(=O)n(Cc3ccc4c(c3)NCCO4)c2)nc(S(=O)(=O)CCC(OCc2ccccc2F)c2ccccc2)n1 (stereo not drawn) [Compound 359] |  | 1 to 1000 nM | 
16 | Cc1ccccc1-c1cc(C(F)(F)F)nc(S(C)(=O)=O)n1 [Compound 46, 2-(methylsulfonyl)-4-(o-tolyl)-6-(trifluoromethyl)pyrimidine] | 1000 to 20000 nM |  | 
17 | Cc1cc(-c2cc(F)c(=O)n(Cc3ccc4c(c3)OCO4)c2)nc(S(=O)(=O)CCC(OCC2COC2)c2ccccc2)n1 (stereo not drawn) [Compound 417] |  | 1 to 1000 nM | 
18 | Cc1cc(-c2cc(F)c(=O)n(Cc3ccc4nnn(C)c4c3)c2)nc(S(=O)(=O)CCCN2C(=O)Cc3ccccc32)n1 [Compound 363] |  | 1 to 1000 nM | 
19 | C[S+]([O-])c1nc(-c2ccc(=O)n(Cc3ccc4ocnc4c3)c2)cc(C(F)(F)F)n1 (stereo not drawn) [Compound 227] |  |  | EC50 [2]: < 10000 nM
20 | CS(=O)(=O)c1nc(-c2ccn(Cc3cccc(Cl)c3)c2)cc(C(F)(F)F)n1 [Compound 93, 4-(1-(3-chlorobenzyl)-1H-pyrrol-3-yl)-2-(methylsulfonyl)-6-(trifluoromethyl)pyrimidine] | < 100000 nM |  | 
21 | CN(C)c1cc(-c2cccs2)nc([S+](C)[O-])n1 (stereo not drawn) [Compound 42, N,N-dimethyl-2-(methylsulfinyl)-6-(thiophen-2-yl)pyrimidin-4-amine] | < 100000 nM |  | 
22 | Cc1cc(-c2cc(F)c(=O)n(Cc3ccc4c(c3)N(C)CCO4)c2)nc(S(=O)(=O)CCC(OCc2ccccc2F)c2ccccc2)n1 (stereo not drawn) [Compound 356] |  | 1 to 1000 nM | 
23 | COc1ccc(Cn2cc(-c3cc(C)nc([S+]([O-])CCC(C)OCc4ccccc4F)n3)cc(F)c2=O)cc1F (stereo not drawn) [Compound 304, 3-fluoro-1-(3-fluoro-4-methoxybenzyl)-5-(2-((3-((2-fluorobenzyl)oxy)butyl)sulfinyl)-6-methylpyrimidin-4-yl)pyridin-2 (1H)-one] | < 100000 nM |  | 
24 | COc1ccc(Cn2cc(-c3cc(C(F)(F)F)nc([S+]([O-])Cn4ncnn4)n3)ccc2=O)cc1OC (stereo not drawn) [Compound 193] |  |  | EC50 [2]: < 10000 nM

Row | SMILES | EC50 (means of duplicates) | EC50 [1] | other results
25 | [O-][S+](CCC(OCc1ccccc1)c1ccccc1)c1nc(-c2cccs2)cc(C(F)(F)F)n1 (stereo not drawn) [Compound 290, 2-(3-(benzyloxy)-3-phenylpropylsulfinyl)-4-(thiophen-2-yl)-6-(trifluoromethyl)pyrimidine] | 1000 to 10000 nM |  | 
26 | Cc1cc(-c2cc(F)c(=O)n(Cc3ccc4c(c3)CCCO4)c2)nc(S(=O)(=O)CCC(OCc2ccccc2F)c2ccccc2)n1 (stereo not drawn) [Compound 355] |  | 1 to 1000 nM | 
27 | CCC(=O)c1cc(-c2ccc(=O)n(Cc3ccc(OC)c(OC)c3)c2)nc(S(C)(=O)=O)n1 [Compound 269, 1-(3,4-dimethoxybenzyl)-5-(2-(methylsulfonyl)-6-propionylpyrimidin-4-yl)pyridin-2 (1H)-one] |  |  | EC50 [2]: < 10000 nM
28 | Cc1cc(-c2cc(F)c(=O)n(Cc3ccc4c(c3)OCO4)c2)nc(S(=O)(=O)CCC(OCc2ccccc2F)c2ccc3ncn(C)c3c2)n1 (stereo not drawn) [Compound 393] |  | 1 to 1000 nM | 
29 | COc1ccc(Cn2cc(-c3cc(C4=CCC=C4)nc(S(C)(=O)=O)n3)ccc2=O)cc1OC [Compound 208] |  |  | EC50 [2]: < 10000 nM
30 | COc1ccc(OC2CCCN(c3cc(C(F)(F)F)nc(S(C)(=O)=O)n3)C2)cc1OC (stereo not drawn) [Compound 274, 4-(3-(3,4-dimethoxyphenoxy)piperidin-1-yl)-2-(methylsulfonyl)-6-(trifluoromethyl)pyrimidine] |  |  | EC50 [2]: < 100000 nM
31 | Cc1cc(-c2cc(F)c(=O)n(Cc3ccc4nnn(C)c4c3)c2)nc(S(=O)(=O)CCCN(c2ccccc2)C2CC2)n1 [Compound 381] |  | 1 to 1000 nM | 
32 | CS(=O)(=O)c1nc(-c2ccc(C#N)cc2)cc(C(F)(F)F)n1 [Compound 57] | < 100000 nM |  | 
33 | Cc1cc(-c2cc(F)c(=O)n(Cc3ccc4c(c3)OCO4)c2)nc(S(=O)(=O)CCC(OCc2ccccc2F)c2cccn2C)n1 (stereo not drawn) [Compound 386] |  | 1 to 1000 nM | 
34 | COc1ncccc1-c1cc(C(F)(F)F)nc(S(C)(=O)=O)n1 [Compound 78, 4-(2-methoxypyridin-3-yl)-2-(methylsulfonyl)-6-(trifluoromethyl)pyrimidine] | < 100000 nM |  | 
35 | COc1ccc(-c2cc(C(F)(F)F)nc([S+](C)[O-])n2)cc1 (stereo not drawn) [Compound 54, 4-(4-methoxyphenyl)-2-(methylsulfinyl)-6-(trifluoromethyl)pyrimidine] | 1000 to 20000 nM |  | 
36 | CS(=O)(=O)c1nc(-c2ccc(=O)n(CC3=Cc4ccccc4C3)c2)cc(C(F)(F)F)n1 [Compound 254] |  |  | EC50 [2]: < 10000 nM
37 | CS(=O)(=O)c1nc(-c2cccs2)cc(-c2cccs2)n1 [Compound 37, 2-(methylsulfonyl)-4,6-di(thiophen-2-yl)pyrimidine] | 1000 to 10000 nM |  | 
38 | Cc1cc(-c2cc(F)c(=O)n(Cc3ccc4c(c3)OCO4)c2)nc(S(=O)(=O)CCC(OCC2CO2)c2ccccc2)n1 (stereo not drawn) [Compound 419] |  | 1 to 1000 nM | 
39 | C#Cc1ccc(-c2cc(C(F)(F)F)nc(S(C)(=O)=O)n2)cc1 [Compound 49, 4-(4-ethynylphenyl)-2-(methylsulfonyl)-6-(trifluoromethyl)pyrimidine] | < 100000 nM |  | 
40 | COc1ccc(Cn2cc(-c3cc(C(F)(F)F)nc(S(C)(=O)=O)n3)ccc2=O)c(Cl)c1 [Compound 126, 1-(2-chloro-4-methoxybenzyl)-5-(2-(methylsulfonyl)-6-(trifluoromethyl)pyrimidin-4-yl)pyridin-2 (1H)-one] | 1 to 1000 nM |  | 
41 | Cc1cc(-c2cc(F)c(=O)n(Cc3ccc4c(c3)n(C)c(=O)n4C)c2)nc(S(=O)(=O)CCC(OCc2ccccc2F)c2ccccc2)n1 (stereo not drawn) [Compound 342] |  | 1 to 1000 nM | 
42 | Cc1cc(-c2cc(F)c(=O)n(Cc3ccc4c(c3)OCCN4C)c2)nc(S(=O)(=O)CCC(OCc2ccccc2F)c2ccccc2)n1 (stereo not drawn) [Compound 357] |  | 1 to 1000 nM | 
43 | COc1ccc(Cn2cc(-c3cc(-c4nccs4)nc(S(C)(=O)=O)n3)ccc2=O)cc1OC [Compound 217] |  |  | EC50 [2]: < 10000 nM
44 | CS(=O)(=O)c1nc(N=[N+]=[N-])cc(-c2cccs2)n1 [Compound 41, 4-azido-2-(methylsulfonyl)-6-(thiophen-2-yl)pyrimidine] | < 100000 nM |  | 
45 | Cc1cc(-c2cc(F)c(=O)n(Cc3ccc4c(c3)OCO4)c2)nc(S(=O)(=O)CCC(OCc2ccccc2F)C2CCCOC2)n1 (stereo not drawn) [Compound 399] |  | 1 to 1000 nM | 
46 | Cc1cc(-c2cc(F)c(=O)n(Cc3ccc4c(c3)OCO4)c2)nc(S(=O)(=O)CCC(OCC2CCC2)c2ccccc2)n1 (stereo not drawn) [Compound 415] |  | 1 to 1000 nM | 
47 | COc1ccc(Cn2cc(-c3cc(C(F)(F)F)nc([S+](C)[O-])n3)ccc2=O)cc1OC (stereo not drawn) [Compound 128, 1-(3,4-dimethoxybenzyl)-5-(2-(methylsulfinyl)-6-(trifluoromethyl)pyrimidin-4-yl)pyridin-2 (1H)-one] | 1 to 1000 nM |  | 
48 | CCOc1cccc(Cn2cc(-c3cc(C(F)(F)F)nc(S(C)(=O)=O)n3)ccc2=O)c1 [Compound 112, 1-(3-ethoxybenzyl)-5-(2-(methylsulfonyl)-6-(trifluoromethyl)pyrimidin-4-yl)pyridin-2 (1H)-one] | 1 to 1000 nM |  | 
